Earlier results as cited in patent publication US20210315865A1 (Biohaven Therapeutics Ltd., priority 2018, published 2021).

Settings: taken with meals

Nc1nc2ccc(OC(F)(F)F)cc2s1 [riluzole, 6-(trifluoromethoxy)benzothiazol-2-amine]
food effect on exposure: reduced exposure when taken with meals
